Test results: patent publication US12486218B2, “Compounds advantageous in the treatment of central nervous system diseases and disorders” (AurimMed Pharma, Inc., priority 2008, dated 2025)
Where two headings read alike, the source gives them in different places. Each block holds one compound with its values, some of them ahead of it.

Legend:
mice [1] = experiment: Effects observed in mice after i.p. injection (CNS stimulation, diarrhea); type: in vivo; settings: 30 minutes after i.p. injection of 100 mg/kg
Experimental: In addition, two further tertiary amide compounds, BJ and BT, produced diarrhea in the mice 30 minutes after i.p. injection of 100 mg/kg of each.

rats [2] = experiment: s.c. MET test, rats p.o.; type: in vivo
mice [3] = experiment: Subcutaneous Metrazol Seizure threshold (s.c. MET) test, mice i.p.; type: in vivo; settings: for ED50: Mus musculus
mice [4] = experiment: Maximal Electroshock Seizure (MES) test, mice i.p.; type: in vivo; settings: for ED50: Mus musculus, ip
rats [5] = experiment: Pilocarpine-induced Status Epilepticus in Rats (prevention; intervention @ 30 min); settings: Rattus norvegicus
rats [6] = experiment: MES test, rats p.o.; type: in vivo; settings: for activity in the MES test: at 30 mg/kg
rats [7] = experiment: Hippocampal Kindled Rats model; type: in vivo
mice [8] = experiment: Minimal motor impairment (MID50), mice i.p.; settings: for MID50, fraction of animals: 100 mg/kg @ 0.5 hr; for MID50 (median minimal motor impairment dose): mice, i.p.
rats [9] = experiment: Sciatic nerve ligation model in rats; type: in vivo; settings: 100 mg/kg
Experimental: [The response (threshold for foot withdrawal) was measured in grams.]

in vivo = settings: mouse, ip
rats [10] = experiment: Minimal motor impairment (MID50), rats p.o.; type: in vivo
C3A hepatocyte cells [11] = experiment: ACTIVTox LDH release assay; type: cell-based; settings: for LDH release, mean fold control: at 100 μM, C3A hepatocyte cells, value below 1.75 = no cyto- or hepatotoxic activity; for cyto- or hepatotoxicity, ACTIVTox data: at physiologically relevant concentrations (i.e., <100 µM)
Experimental: Compounds A, I, H, and F were tested by Stem Cell Innovations, Inc. (Houston, TX) in their ACTIVTox® Human Liver Cell-based assays (using C3A hepatocyte cells). Specifically, the compounds were tested in the LDH release assay, which determines the release of Lactate DeHydrogenase (an indicator of cell death) at various concentrations of test compound.
A concentration of 100 µM of test compound is a much higher level of exposure to liver cells than would ever be expected under physiological conditions. Therefore, using 100 μM as a standard test concentration (for comparative purposes), the ratio of the absorbance (which measures the level of LDH release) resulting from the presence of the test compound versus the negative control is a value known as the “average (or mean) fold control” (Average Fold Control=Average of Absorbance/Average of Negative Control).

[12] = system: type II SMA fibroblasts (GM03813); experiment: SMN protein localization, gem counting in type II SMA fibroblasts; type: cell-based; settings: 100 nM-10 μM, 5 days
Experimental: To validate the SMN2 promoter and exon 7 screens, the effects of compounds H, H (acid form), AY, F, BX, and BY were evaluated on the basis of expression and localization of SMN protein in type II SMA fibroblasts (GM03813). In a normal cell, SMN protein localized within the nucleus to discreet foci known as gems. In SMN-deficient SMA cells, the number of gems is greatly diminished. Although the function of gems is unknown, it is believed that they are somehow involved in the snRNP assembly function of SMN. Gem counting can, therefore, be considered an assay for SMN function.
GM03813 fibroblasts were treated with different doses (100 nM-10 μM) of compounds H, H (acid form), AY, F, BX, and BY for 5 days. SMN immunostaining was then completed on these cells and the number of gems was counted in 100 randomly-selected nuclei. […] In fact, the gem counts at the highest dose of compound H approach those observed for carrier fibroblasts (GM03814). When compared against treatment with 1 μM D157495—a D156844 derivative, all of the compounds tested performed as well as or, even better than D157495.

mice [13] = experiment: Audiogenic Seizure susceptible (AGS) test, mice i.p.; type: in vivo; settings: Mus musculus, ip
mice [14] = experiment: Corneal kindled mouse model; type: in vivo; settings: for ED50: Mus musculus
mice [15] = experiment: 6 Hz (minimal clonic seizure) model, mice i.p.; type: in vivo; settings: for ED50: Mus musculus, ip
[16] = system: rat dopaminergic N27 cells; experiment: N27 protection assay against oxidative stress (H2O2 or MPP+; MTT and LDH); type: cell-based; settings: drug 24 hours before 200 μM H2O2 or 640 μM MPP+
From the text: FIGS. 20A-25D data are shown illustrating neuroprotective and neuroregenerative effects observed in rat dopaminergic N27 cells. Rat dopaminergic N27 cells are commonly used in in vitro and in vivo model systems for studying Parkinson's disease. Parkinson's disease is a neurodegenerative disorder of the central nervous system that affects more than 6 million people worldwide. The motor symptoms of Parkinson's disease result from the death of dopamine generating cells in the substantia nigra, a region of the midbrain.
The N27 rat dopaminergic neuron cell line was harvested from E12 rat mesencephalic tissue and was transfected with SV40 to immortalize the cell line. The N27 cell line, when injected into the striata of 6-hydroxydopamine-lesioned rats (an animal model of PD) caused a time-dependent improvement in neurological deficits. This immortalized cell line has been carefully characterized in studies of dopamine biosynthesis, neurotoxicity and used as a dopaminergic neuron model studies.
The N27 in vitro Parkinson's disease model included a test of cell viability and cell toxicity in response to exposure to oxidative stress (e.g., either 200 μM H2O2 or 640 μM MPP+).
Cell viability was tested using the MTT assay. The MTT assay is a colorimetric analysis based on the activities of mitochondrial NAD(P)H-dependent cellular oxidoreductase enzymes. These enzymes are capable of reducing the tetrazolium dye, MTT [3-(4,5-dimethylthiazol-2-yl)-2,5-diphenyltetrazolium] bromide, to an insoluble formazan (purple). […] More viable cells equal more accumulation of the insoluble formazan dye.
Cell toxicity was tested using the […] (LDH) assay. Cells that are stressed secrete LDH. In general, the more cells are stressed, the LDH they secrete into their media. The LDH assay is a reliable colorimetric assay to measure quantitatively the […] (LDH) that is released into the cell culture media from damaged cells as a biomarker for cytotoxicity and cytolysis.
FIGS. 20A-25D present data from two types of assays: protection and recovery assays. In the protection assays, the drug candidate was applied to the cells at various concentrations for 24 hours, followed by the exposure to oxidative stress (either 200 μM H2O2 or 640 μM MPP+) for measuring neuroprotective effect. H2O2 provides a broad measure of oxidative stress, while MPP+ gives a more specific oxidative stress to dopaminergic neurons.
The protection assay results are shown in panels A-C of FIGS. 20-25 In the recovery assays, the cells were first damaged by exposure to H2O2 and then various concentrations of the drug were applied to the cells. The results for the recovery assays are shown the D panels of FIGS. 20-25.

C3A hepatocyte cells [17] = experiment: ACTIVTox Cell Proliferation Assay; type: cell-based; settings: at a concentration of 100 μM
[18] = 0.5 h, read-out: Intervention @ 30 min, Protection
[19] = read-out: Prevention, Protection

effect produced in the mice (mice [1]): diarrhea
SMILES: CC(CC(=O)N1CCCC(C(N)=O)C1)c1ccc(OC(F)(F)F)cc1 (centres unmarked) [BT, 1-[3-(4-Trifluoromethoxy-phenyl)-butyryl]-piperidine-3-carboxylic acid amide]

SMILES: CC(CC(N)=O)c1cccc(C(F)(F)F)c1 (centres unmarked) [Compound G, 3-[3-(trifluoromethyl)-phenyl]butyramide]
activity in the s.c. MET test (rats [2]; at 30 mg/kg): activity
ED50 (mice [3]; mice, i.p.): ≤ 100 mg/kg
s.c. MET, fraction of animals (mice [3]; mice i.p., 100 mg/kg @ 0.5 hr): 1/1 @0.5
ED50 (mice [4]; mice): < 100 mg/kg
MES, fraction of animals (mice [4]; mice i.p., 100 mg/kg @ 0.5 hr): 3/3 @0.5
MES, fraction of animals (mice [4]; mice i.p., 100 mg/kg @ 4.0 hr): hr, 1/3 @
responders at 200 mg/kg (rats [5]; [18]): 88%
responders at 200 mg/kg (rats [5]; [19]): 100%
activity in the MES test (rats [6]): activity
seizure score, Hippocampal Kindled Rats model (rats [7]; rats, at 100 mg/kg): significantly lowering the seizure score
MID50, fraction of animals (mice [8]; mice i.p.): 7/8 @0.5 hr
MID50 (median minimal motor impairment dose) (mice [8]): <100 mg/kg
allodynic threshold (rats [9]; 1 hour post-administration): 275 % of the control
allodynic threshold (rats [9]; 2 hours post-administration): 219 % of the control
allodynic threshold (rats [9]; 4 hours post-administration): 175 % of the control

SMILES: CC(CC(N)=O)c1ccc(C(F)(F)F)cc1 (centres unmarked) [F, 3-[4-(trifluoromethyl)-phenyl]butyramide]
ED50 (rats [2]; Rattus norvegicus, p.o.): > 250 mg/kg
ED50 (mice [3]; mice i.p., @ 1.0 hr): 85.5 mg/kg
ED50 (mice [3]; mice, i.p.): 85.5 mg/kg
TD50 (in vivo): > 200 mg/kg
MID50 (rats [10]): >500 (none observed) mg/kg
LDH release, mean fold control (C3A hepatocyte cells [11]): 1.47
cyto- or hepatotoxicity, ACTIVTox data (C3A hepatocyte cells [11]): not cyto- or hepatotoxic
gem counts (SMN immunostaining, 100 nuclei) [12]: increase gem counts in a dose-dependent manner
ED50 (mice [13]; mice): 41.3 mg/kg
ED50 (mice [13]; mice i.p., @ 2.0 hrs): 41.3 mg/kg
ED50 (mice [4]; mice): 85.3 mg/kg
ED50 (mice [4]; mice i.p., @ 2.0 hrs): 85.3 mg/kg
ED50 (mice [14]; ip, mice i.p., @1.0 hrs, read-out: Corneal Kindled ED50): 60.6 mg/kg
ED50 (mice [14]; read-out: ED50, corneal kindled mouse model): 60.6 mg/kg
seizure score, corneal kindled mouse model (mice [14]; at 100 mg/kg): zero
ED50 (mice [15]; mice i.p., @ 0.5 hrs, read-out: 6 Hz (32 mA) ED50): 80.8 mg/kg
ED50 (mice [15]; mice, i.p., read-out: 6 Hz ED50): 80.8 mg/kg
responders at 65 mg/kg (rats [5]; [19]): 14%
ED50 (rats [6]; Rattus norvegicus, po): 26.4 mg/kg
neuroprotective effect against H2O2 and MPP+ oxidative stresses (MTT and LDH assays) [16]: statistically significant, dose-dependent neuroprotection
ED50 (rats [7]; Rattus norvegicus): 29 mg/kg
MID50 (TD50) (mice [8]; mice i.p., @ 0.25 hr): 208.37
MID50 (median minimal motor impairment dose) (mice [8]): 208.37 mg/kg

SMILES: CC(CC(N)=O)c1cccc(OC(F)(F)F)c1 (centres unmarked) [I, 3-[3-(trifluoromethoxy)-phenyl]butyramide]
ED50 (mice [3]; mice, i.p.): ≤ 100 mg/kg
s.c. MET, fraction of animals (mice [3]; mice i.p., 100 mg/kg @ 0.5 hr): 1/1 @0.5,
s.c. MET, fraction of animals (mice [3]; mice i.p., 100 mg/kg @ 4.0 hr): 1/5 @ 4.0 hr
LDH release, mean fold control (C3A hepatocyte cells [11]): 1.03
cyto- or hepatotoxicity, ACTIVTox data (C3A hepatocyte cells [11]): not cyto- or hepatotoxic
ED50 (mice [4]; mice): < 100 mg/kg
MES, fraction of animals (mice [4]; mice i.p., 100 mg/kg @ 0.5 hr): 3/3 @0.5,
MES, fraction of animals (mice [4]; mice i.p., 100 mg/kg @ 4.0 hr): 3/3 @ 4.0 hr
Corneal Kindled, Average seizure score (mice [14]; mice i.p., 100 mg/kg @ 0.5 hr): score is 0:
Corneal Kindled, fraction of animals (mice [14]; mice i.p., 100 mg/kg @ 0.5 hr): 4/4 @
6 Hz (32 mA), fraction of animals (mice [15]; mice i.p., 50 mg/kg @ 0.25 hr): 3/4
6 Hz (32 mA), fraction of animals (mice [15]; mice i.p., 50 mg/kg @ 0.5 hr): 2/4
6 Hz (32 mA), fraction of animals (mice [15]; mice i.p., 100 mg/kg @ 4.0 hr): 2.0 and 1/4
responders at 130 mg/kg (rats [5]; [18]): 100%
responders at 65 mg/kg (rats [5]; [19]): 86%
activity in the MES test (rats [6]): activity
Cell Proliferation Assay, mean fold control (C3A hepatocyte cells [17]): 1.25
toxicity to proliferating cells (C3A hepatocyte cells [17]): non-toxic
MID50, fraction of animals (mice [8]; mice i.p.): 8/8 @0.50 hr,
MID50 (median minimal motor impairment dose) (mice [8]): <100 mg/kg
